Experimental data as given in patent US11723589B2 (The General Hospital Corporation, priority 2010, dated 2023).
“And” between values parts separate entries of the source, which are not always exact repeats. Identical values can stand only once. “Also recorded” adds a separate entry of the source.

Columns and labels:
[1] = system: Male Sprague-Dawley rats; assay: Return of righting during continuous isoflurane general anesthesia; format: in vivo, rat
Source text: Anesthetizing Protocol. Rats were anesthetized in an induction chamber with 2-3% isoflurane in oxygen prior to placement of a lateral tail vein intravenous catheter (24 gauge, 19 mm). A rectal temperature probe was inserted and the animal was placed in a cylindrical acrylic anesthetizing chamber. The chamber was custom-built and equipped with ports for anesthetic gas delivery, sampling, and scavenging, as well as intravenous drug administration. A heating pad was placed under the chamber to keep the animal warm, and the body temperature was kept between 36.5° C. and 37.4° C.
The rat was positioned supine in the anesthetizing chamber and the inhaled concentration of isoflurane was initially fixed at 2.0% for 20 minutes, then reduced to 0.8% over 15-20 minutes, and then maintained at 0.8% for 40 minutes. If the rat made any purposeful movement, the isoflurane concentration was increased by 0.1% and maintained for another 40 minutes. This process was repeated until the final dose of isoflurane sufficient to maintain loss of righting reflex was established, and this dose was administered throughout the remainder of the experiment. This protocol was based on previously published methods described by Alkire et al.^4,11 After the final 40-minute equilibration period, normal saline (2 ml) was administered and the rectal temperature probe was removed. Five minutes later, methylphenidate was administered.
Prism 4.03 (Graphpad Software, San Diego, Calif.) and Matlab (Mathworks, Natick, Mass.) were used for statistical analysis and where possible, results are reported in terms of 95% confidence intervals based on z-tests, t-tests or Mann-Whitney tests. […] For this computation the inventors assumed a binomial model as the sampling density or likelihood function for the propensity of animals in a given group to have return of the righting response. The inventors took as the prior density for each group the uniform density on the interval (0, 1) because it is uninformative. Because of the conjugacy between the prior and the likelihood the posterior density for each group is a beta density.^17 The posterior densities for the differences in the proportion of animals that had return of righting were then computed by using standard Matlab simulation procedures. Instead of p-values for the Bayesian analyses the inventors computed the posterior probability that the propensity to right was greater in on group compared to the other.

[2] = system: mice; settings: uninstrumented mice, rotating anesthetizing chamber; cited from earlier work
[3] = system: Male Sprague-Dawley rats; assay: Electroencephalogram recording and spectral analysis during continuous isoflurane; format: in vivo, rat; settings: isoflurane 1.0%
Procedure: Electroencephalogram electrode placement, recording, and spectral analysis. Extradural electroencephalogram electrodes were surgically implanted at least 7 days prior to recording. General anesthesia was induced with xylazine (5-10 mg/kg IP) and ketamine (50-100 mg/kg IP), and supplemented with isoflurane (1-2%). A microdrill was used to make four holes at the following stereotactic coordinates: A0L0, A6L3, A6L-3, and A10L2 relative to the lambda.^12 Polytetrafluoroethylene coated, 200 μm diameter stainless steel electrode wires (A-M Systems, Sequim, Wash.) were inserted and secured with small stainless steel screws, and permanently fixed with dental acrylic cement. Carprofen (5 mg/kg SC) was administered for analgesia on the day of surgery, as well as on post-operative days 1, and 2. The potential difference between electrodes A0L0 and A6L3, or between electrodes A0L0 and A6L-3 (whichever gave less motion artifact), was referenced to A10L2 and recorded using a QP511 Quad AC Amplifier System (Grass Instruments, West Warwick, R.I.) and a USB-6009 14-bit data acquisition board (National Instruments, Austin, Tex.). Data was filtered between 0.3-100 Hz. No line filter was used. The sampling rate was 512 Hz. After baseline recordings were taken for 10 minutes while awake, rats were anesthetized with isoflurane and placed in the anesthetizing chamber. […] Therefore the inventors performed the electroencephalogram experiments in the prone position with the isoflurane dose fixed at 1.0%. These modifications allowed us to minimize electroencephalogram motion artifacts without restraining the animals. After a minimum isoflurane exposure of 40 minutes, normal saline was administered and the temperature probe was removed. Five minutes later, methylphenidate was administered. Spectral analysis was performed using Matlab 7.11 (Mathworks, Natick, Mass.) and the Chronux software (Cold Spring Harbor, N.Y.). 13 Spectrograms were calculated using sliding windows of 2 sec duration stepped through 0.05 sec. For each window, multitaper spectrum estimation was performed using 5 tapers. […]

[4] = system: mice; settings: cited from earlier work
[5] = system: rats; settings: 3 mg/kg of droperidol; cited from earlier work
[6] = system: rats; assay: D-MPH versus L-MPH reversal of isoflurane anesthesia, loss of righting reflex (LORR); format: in vivo, rat; settings: for reversal of isoflurane-induced general anesthesia: intravenous, rat animal model; for rats with restoration of consciousness: intravenous dose of 0.5 mg/kg; for rats with restoration of consciousness / rate of % recovery of consciousness / time to emergence, D-MPH compared with L-MPH: isoflurane anesthesia; for rate of % recovery of consciousness / time to emergence, D-MPH compared with L-MPH: FIG. 7
Source text: Pure D-MPH (Focalin) is currently available in oral form for Attention Deficit Hyperactivity Disorder (ADHD), but it is not available for intravenous use.

[7] = system: Male Sprague-Dawley rats; assay: Time to emergence after a standardized isoflurane general anesthetic; format: in vivo, rat
Source text: Animal Care and Use. Animal studies were approved by the Subcommittee on Research Animal Care, Massachusetts General Hospital, Boston, Mass. Male Sprague-Dawley rats (Charles River Laboratories, Wilmington, Mass.) weighing 351-565 grams were used. […] Separate groups of animals were used for the electroencephalogram (4 rats), plethysmography (4 rats), and blood gas studies (6 rats). In animals that underwent multiple experiments, each animal was provided with at least 3 days of rest between experiments. Animals were kept on a standard day-night cycle (lights on at 7 AM, and off at 7 PM), and all experiments were performed during the day.
Preparation and Delivery of Drugs. […] Droperidol was diluted in normal saline to a final volume of 0.5 ml prior to administration. […]

[8] = system: Male Sprague-Dawley rats; assay: Plethysmography during isoflurane general anesthesia; settings: for Change in mean RR: after vs before methylphenidate 5 mg/kg IV
Source text: Plethysmography. Rats were placed in a custom built plethysmography chamber and the isoflurane concentration in the chamber was maintained at 1.5%. […] A differential pressure transducer and demodulator (Models CD15 and MP45-14-871; Validyne Engineering, Northridge, Calif.) were used to convert the chamber pressure to an analog signal. The signal was high pass filtered at 15 sec, acquired at 100 Hz, and analyzed in four second epochs using a USB-6009 data acquisition board (National Instruments, Austin, Tex.) and LabView Software (version 8.5 for Macintosh). Chamber carbon dioxide levels were maintained at or less than 0.5% in the open flow configuration. A heating pad was used to warm the rat from beneath. Chamber air temperature and relative humidity were measured with a thermometer-hygrometer (Fisher Scientific, Pittsburgh, Pa.) and used to estimate tidal volumes during intermittent chamber closure using methods described by Drorbaugh et al.^16

[9] = biological target: norepinephrine transporter (Homo sapiens, UniProt P23975); settings: read-out: Ki, norepinephrine transporter; cited from earlier work
norepinephrine transporter, sequence (P23975 whole entry, the tested form may be a part): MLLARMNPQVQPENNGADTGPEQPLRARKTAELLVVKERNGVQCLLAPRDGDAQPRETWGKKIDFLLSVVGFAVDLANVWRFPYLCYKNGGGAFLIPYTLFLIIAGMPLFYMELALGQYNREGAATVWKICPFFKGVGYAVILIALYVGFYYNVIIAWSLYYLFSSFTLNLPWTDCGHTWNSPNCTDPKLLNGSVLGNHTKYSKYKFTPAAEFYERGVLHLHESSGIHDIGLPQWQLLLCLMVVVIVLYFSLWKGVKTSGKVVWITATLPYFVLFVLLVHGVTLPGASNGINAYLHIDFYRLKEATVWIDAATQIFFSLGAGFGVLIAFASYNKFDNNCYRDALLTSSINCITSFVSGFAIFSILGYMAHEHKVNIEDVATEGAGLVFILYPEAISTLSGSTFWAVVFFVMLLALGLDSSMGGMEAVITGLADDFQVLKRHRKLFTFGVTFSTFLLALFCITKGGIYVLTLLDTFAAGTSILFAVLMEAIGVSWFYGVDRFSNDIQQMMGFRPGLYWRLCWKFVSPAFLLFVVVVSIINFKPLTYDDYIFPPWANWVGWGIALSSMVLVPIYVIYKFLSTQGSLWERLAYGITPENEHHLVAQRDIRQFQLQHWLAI

[10] = system: rats; assay: Restoration of righting and EEG during continuous propofol anesthesia; format: in vivo, rat; settings: MPH 5 mg/kg IV, continuous propofol infusion
Procedure: For the second experiment, 2 IV catheters were placed and a continuous propofol infusion was started in rats with pre-implanted EEG electrodes. After establishing the minimum plasma concentration of propofol required to maintain loss of righting, the second IV catheter was flushed with NS, and 5 minutes later MPH (5 mg/kg) was administered.

[11] = system: Male Sprague-Dawley rats; assay: Hemodynamic recordings (mean arterial blood pressure, heart rate) during isoflurane general anesthesia; format: in vivo, rat; settings: individual animals, isoflurane 1.5%
Procedure: (§1) Arterial Blood Gas and Hemodynamic Recordings. Rats with femoral artery catheters (Charles River Laboratories, Wilmington, Mass.) were placed in the anesthetizing chamber after lateral tail vein IV catheter placement. The isoflurane dose was kept constant at 1.5%. Mean arterial blood pressure and heart rate were measured using a pressure transducer (TruWave, Edwards Life Sciences, Irvine, Calif.) interfaced with a custom-built amplifier (AD620 operational amplifier, Jameco Electronics, Belmont, Calif.). […] Samples were promptly analyzed using CG4+ cartridges in a Vetscan iStat 1 (Abaxis, Union City, Calif.) blood gas analyzer.

[12] = system: Male Sprague-Dawley rats; assay: Arterial blood gas analysis during isoflurane general anesthesia; format: in vivo, rat
Procedure: as §1
To provide a conservative check on the assessments made by the 95% confidence intervals and the parametric tests and non-parametric tests were also used to assess statistical significance. The Mann-Whitney test was used to test the hypothesis that methylphenidate hastens time to emergence from isoflurane general anesthesia, and to test the dose-dependence of methylphenidate on time to righting during continuous isoflurane general anesthesia. A paired t-test was used to test the hypothesis that methylphenidate produces a respiratory alkalosis during isoflurane general anesthesia. The inventors used the two-sided Kolmogorov-Smirnov test with a Bonferonni correction to compare spectra in animals before and after receiving methylphenidate. The inventors considered a result to be statistically significant based on the 95% confidence intervals comparing two groups if zero was not in the interval, based on hypothesis tests if the p-values were less than 0.05 or in the case of the Bayesian analyses, if the relevant posterior probability was greater than 0.95.

[13] = system: rats; assay: Time to emergence after a single dose of propofol; format: in vivo, rat; settings: propofol 8 mg/kg IV, MPH 5 mg/kg IV 45 sec later; mean±SE; n=6
Procedure: For the first experiment, a lateral tail vein IV catheter was placed in rats under isoflurane anesthesia. […] Time to emergence was defined as the time until restoration of righting occurred. Statistical analysis was performed using the Mann-Whitney test.

[14] = children treated with racemic methylphenidate; cited from earlier work
[15] = individual animals pretreated with droperidol (0.5 mg/kg IV), isoflurane 1.5%
[16] = individual animals pretreated with normal saline, isoflurane 1.5%
[17] = after vs before methylphenidate 5 mg/kg IV, listed as Methylphenidate
[18] = arterial blood 15 minutes after methylphenidate, isoflurane 1.5%, n = 6

FC(F)OC(Cl)C(F)(F)F (stereo not shown) [isoflurane]
dose of isoflurane sufficient to maintain loss of righting ([1]; inhaled, rats, mean±SD): 0.9%±0.1% and 0.9%
dose for loss of righting [2]: 0.81%

O=C(CCCN1CC=C(n2c(=O)[nH]c3ccccc32)CC1)c1ccc(F)cc1 [droperidol]
purposeful movement in response to droperidol ([1]; droperidol 0.5 mg/kg IV, continuous isoflurane, n=6): None of the animals exhibited purposeful movement
EEG pattern change after droperidol ([3]; droperidol 0.5 mg/kg IV): no appreciable change
EC50 for loss of righting [4]: 40 mg/kg
effect on isoflurane potency [5]: no effect on isoflurane potency

COC(=O)[C@H](c1ccccc1)[C@H]1CCCCN1 (racemic) [methylphenidate]
reversal of isoflurane-induced general anesthesia [6]: rapidly reversed isoflurane-induced general anesthesia
median time to emergence (termination of isoflurane to return of righting) ([7]; methylphenidate 5 mg/kg IV five minutes before end of 45 min isoflurane 1.5%, n=12): 91 s
median difference in time to emergence versus normal saline ([7]; methylphenidate 5 mg/kg IV, isoflurane 1.5%): 200 s
median time to righting after methylphenidate ([1]; 0.5 mg/kg IV, continuous inhalation of isoflurane): 348 s
median time to righting after methylphenidate ([1]; 5 mg/kg IV, continuous inhalation of isoflurane): 181 s
median difference in time to righting between 0.5 and 5 mg/kg ([1]; continuous inhalation of isoflurane): 173 s
return of righting after droperidol pretreatment ([1]; droperidol 0.5 mg/kg IV five minutes before methylphenidate 5 mg/kg IV, continuous isoflurane, n=6): None of these animals had return of righting; also recorded: did not induce return of righting in any of the six animals
signs of arousal ([1]; methylphenidate 0.05 mg/kg IV, continuous isoflurane, six rats): no signs of arousal
return of righting (rats) ([1]; methylphenidate 0.5 mg/kg IV, continuous isoflurane): 11 of 12
return of righting (rats) ([1]; methylphenidate 5 mg/kg IV after normal saline, continuous isoflurane): 11 of 12
time to purposeful movements ([1]; methylphenidate 5 mg/kg, all 12 rats, continuous isoflurane): ≤ 30 s
Change in mean RR [8, 15]: +4.4 breaths per minute and +2.2 breaths per minute and +3.6 breaths per minute and +4.9 breaths per minute
Change in mean RR [8, 16]: +29.2 breaths per minute and +9.8 breaths per minute and +50.36 breaths per minute and +18.9 breaths per minute
RR after 5 mg/kg IV Methylphenidate (mean) [8, 15]: 86.3 breaths per minute and 78.0 breaths per minute and 84.1 breaths per minute and 75.5 breaths per minute
RR after 5 mg/kg IV Methylphenidate (mean) [8, 16]: 154 breaths per minute and 112.6 breaths per minute and 94.2 breaths per minute and 153.8 breaths per minute and 116.7 breaths per minute
changes in tidal volume ([8]; methylphenidate 5 mg/kg IV after droperidol 0.5 mg/kg IV, four rats, one increase, three decreases): 4-17%
changes in tidal volume ([8]; methylphenidate 5 mg/kg IV after normal saline, isoflurane 1.5%): the changes were small and inconsistent
changes in tidal volume ([8]; methylphenidate 5 mg/kg IV after normal saline, isoflurane 1.5%, listed as Methylphenidate): tidal volume remained essentially unchanged
EEG changes after methylphenidate with droperidol pretreatment ([3]; droperidol 0.5 mg/kg IV five minutes before methylphenidate 5 mg/kg IV): did not induce electroencephalogram changes consistent with arousal; also recorded: failed to induce these electroencephalogram changes; also recorded: the shift in peak power from delta to theta was absent
persistence of the active EEG pattern ([3]; methylphenidate 5 mg/kg IV): more than 15 minutes
Ki [9]: 150 nM
rats with signs of arousal and restoration of righting within 4 min [10]: 5/6
time to restoration of righting in the rat with delayed arousal response ([10]; one rat): 25 min
Change in HR (mean) ([11]; after vs before methylphenidate 5 mg/kg IV): 6 beats per minute and 15 beats per minute
Change in HR (mean) [11, 17]: −14.2 beats per minute and −7.2 beats per minute and +13.9 beats per minute and +0.72 beats per minute and +0.5 beats per minute and −2.6 beats per minute
Change in MAP (mean) [11, 17]: +20.5 mmHg and +8.3 mmHg and +3.2 mmHg and −1.4 mmHg and +0.5 mmHg and +7.4 mmHg
HR after 5 mg/kg IV Methylphenidate (mean) [11]: 386.8 beats per minute and 383.3 beats per minute and 365.5 beats per minute and 360.0 beats per minute and 358.6 beats per minute
MAP after 5 mg/kg IV Methylphenidate (mean) [11]: 117.1 mmHg and 90.9 mmHg and 91.3 mmHg and 85.2 mmHg and 100.7 mmHg and 90.8 mmHg
P2CO2 after 5 mg/kg IV Methylphenidate (mean) [12, 18]: 35 mmHg
P2O2 after 5 mg/kg IV Methylphenidate (mean) [12, 18]: 241 mmHg
pH after 5 mg/kg IV Methylphenidate (mean) [12, 18]: 7.51
calculated increase in alveolar ventilation (VA) ([12]; from paCO2 pre/post methylphenidate, assuming no change in baseline metabolism): 24±6%
time to emergence (restoration of righting) after a single dose of propofol [13]: 433 ± 24 s

COC(=O)C(c1ccccc1)C1CCCCN1 [D-MPH, D-threo-methylphenidate]
rats with restoration of consciousness [6]: 83%
reversal of isoflurane-induced general anesthesia [6]: rapidly reversed isoflurane-induced general anesthesia
rate of % recovery of consciousness / time to emergence, D-MPH compared with L-MPH [6]: at a quicker rate than L-MPH
rate of % recovery of consciousness / time to emergence, D-MPH compared with L-MPH ([6]; listed as D-MGH): faster
increase in plasma levels [14]: 5 fold

COC(=O)[C@@H](c1ccccc1)[C@@H]1CCCCN1 [L-MPH, L-threo-methylphenidate]
rats with restoration of consciousness [6]: 33%
reversal of isoflurane-induced general anesthesia [6]: rapidly reversed isoflurane-induced general anesthesia
